Assay results as given in publication PMC9549831 (European Journal of Clinical Pharmacology, 2022).
Each block holds one compound with its values, some of them ahead of it.

What was measured:
[1] = clinical; conditions: human, in vivo
Experimental: Mobile phase composition is 25 mM ammonium acetate: methanol 25:[…]. The flow rate was set at 0.7 ml/min. Injection volume was set at 2.5 ul. […] Before transferring the plasma sample to the MCX cartridge, acidification of the plasma sample with […] of (formic acid 2%) was performed. The sample was washed with 200 ul of 2% formic acid in water followed by 200 ul of methanol. […] Then 350 ul of water was added to the eluent and vortexed. After that, the diluted eluent was transferred to a vial insert, and 2.5 μl was injected into LC/MS/ MS system for analysis. […] The limit of quantification was defined considering the method sensitivity, the precision, and the accuracy. To evaluate precision and accuracy, specific quality control samples were included in the validation procedure. […] Blood samples were collected into tubes containing EDTA disodium as an anticoagulant slightly shaken and centrifuged at approximately 4000 r.p.m. for 10 min. After centrifugation, plasma samples were transferred directly into a 5 ml-plastic tube. These samples were immediately stored at the study site in a freezer at a nominal temperature - 80 °C until analysis. The label of the collecting tubes had the study's code number, subject number, study period, and the designated sample number. […] Pharmacokinetic parameters were determined and calculated. […] The pharmacokinetic analysis was performed using the SAS program. All results were expressed as mean ± SD. Paired T-Test was used to compare results, and the level of significance was considered at (P < 0.05).

[2] = Safety and tolerability: adverse effects, blood pressure, pulse rate in healthy volunteers; format: in vivo, human; conditions: for incidence of reported headache: 18 volunteers
Experimental: (§1) Blood glucose levels were measured for all volunteers on the ninth and the thirteenth day before dosing and at 0.5, 0.75, 1, 1.5, 2, 2.5, 3, 12, and 24 h; the main outcome measures were maximum plasma glucose concentration (Gmax) and the area under the blood glucose concentration–time curve (AUCg0-t). Blood pressure (systolic and diastolic) and heart rate were measured before dosing and at 2, 4, 6, 8, and 10 h after drug administration.
Blood pressure, pulse rate, and body temperature together with blood glucose levels were reported all over the study. Moreover, possible side and/or adverse reactions or events to the study formulations were recorded to assure the safety and tolerability of different drug administrations.

[3] = cited from earlier work
[4] = independent of total drug concentrations; cited from earlier work
[5] = system: PDE5; conditions: relative to sildenafil; cited from earlier work
[6] = parameters: method as in PMID 12076989; conditions: after co-administration of diltiazem with saxagliptin; cited from earlier work
[7] = Pharmacodynamic parameters: blood glucose levels (Gmax, AUCg0-t) in healthy volunteers; format: in vivo, human
Experimental: as §1

[8] = healthy subjects and patients with type 2 diabetes; cited from earlier work
[9] = parameters: method as in PMID 33459228; conditions: cited from earlier work
[10] = system: isolated aorta rings; conditions: cited from earlier work
[11] = oral administration, fasting conditions

- AUC(0-t) ([1]; 50 mg): 977 ng·h/mL
- Cmax ([1]; 50 mg): 302 ng/mL
- Tmax ([1]; 50 mg): 0.977 h
Structure (SMILES): CCCc1nn(C)c2c(=O)[nH]c(-c3cc(S(=O)(=O)N4CCN(C)CC4)ccc3OCC)nc12 [sildenafil]
- incidence of reported headache ([2]; drug administered alone): 33.3%
- absolute oral bioavailability, range [3]: 25–63%
- mean absolute oral bioavailability [3]: 41%
- mean steady-state volume of distribution [3]: 105 L
- terminal half-life (t1/2) [3]: 3 to 5 h
- total body clearance [3]: 41 L/h
- median time to Cmax [3, 11]: 60 min
- time to maximum observed plasma concentration (Cmax) [3, 11]: 30 to 120 min

Structure (SMILES): CCCc1nn(C)c2c(=O)[nH]c(-c3cc(S(=O)(=O)N4CCNCC4)ccc3OCC)nc12 [N-desmethyl metabolite]
- bound to plasma proteins [4]: 96%
- in vitro potency for PDE5 relative to the parent drug [5]: approximately 50%
- plasma concentrations relative to those found for sildenafil [3]: approximately 40%
- terminal half-life (t1/2) [3]: approximately 4 h

Structure (SMILES): N#C[C@@H]1C[C@@H]2C[C@@H]2N1C(=O)[C@@H](N)C12CC3CC(O)(CC(O)(C3)C1)C2 [5-hydroxy saxagliptin]
- decrease of geometric mean AUC0-inf [6]: 34%
- decrease of geometric mean Cmax [6]: 43%

- AUC(0-inf) ([1]; 5 mg): 113 ng·h/mL
- AUC(0-t) ([1]; 5 mg): 112 ng·h/mL
- Tmax ([1]; 5 mg): 1.24 h
Structure (SMILES): N#C[C@@H]1C[C@@H]2C[C@@H]2N1C(=O)[C@@H](N)C12CC3CC(CC(O)(C3)C1)C2 [saxagliptin]
- maximum glucose concentration (Gmax) ([7]; saxagliptin 5 mg + sildenafil 50 mg co-administered): 95.6 mg/dL
- maximum glucose concentration (Gmax) ([7]; saxagliptin 5 mg multiple doses alone): 93.7 mg/dL
- blood pressure and pulse rate ([2]; after co-administration of saxagliptin and sildenafil vs alone (P > 0.001)): comparable
- incidence of reported headache ([2]; co-administration of saxagliptin 5 mg and sildenafil 50 mg): 44.4%
- incidence of reported headache ([2]; drug administered alone): 0%
- mean half-life [8]: 2.2 to 3.8 h
- time to reach maximal plasma concentration [8]: < 2 h
- overall systemic exposure to saxagliptin [AUCs] ([9]; co-administration of simvastatin 40 mg): not affected
- effect on CYP3A4 activity ([9]; concluded from simvastatin pharmacokinetics at steady state): neither induces nor inhibits CYP3A4 activity
- rise of NO/ONOO- rate [10]: about 40%
- stimulation of NO release [10]: about 18%
